{"source": "ChEMBL document CHEMBL1147329", "about": "“Cytotoxic principles and their derivatives of Formosan Solanum plants” (1993)", "key": {"[1]": {"tested_on": "Mus musculus", "assay": "Protective activity against CCL4-induced hepatotoxicity in ICR mouse assessed as SGOT/SGPT levels at 0.1 to 3 mg/kg, ip"}, "[2]": {"assay": "Cytotoxicity against human PLC/PRF/5 cells", "type": "functional", "settings": "read-out: ED50 (the source's name)"}, "[3]": {"tested_on": "KB", "assay": "Cytotoxicity against human KB cells", "type": "functional", "settings": "read-out: ED50 (the source's name)"}}, "note": "The source made the active and inactive calls. The rule behind the calls is not given here."}
{"smiles": "C[C@@H]1CC[C@@]2(NC1)O[C@H]1C[C@H]3[C@@H]4CC=C5C[C@@H](O[C@@H]6O[C@H](CO)[C@@H](O[C@@H]7O[C@@H](C)[C@H](O)[C@@H](O)[C@H]7O)[C@H](O)[C@H]6O)CC[C@]5(C)[C@H]4CC[C@]3(C)[C@H]1[C@@H]2C", "values": [{"measurement": "Activity", "setting": "[1]", "value": "Active"}]}
{"smiles": "C[C@H]1CC[C@H]([C@@H](C)[C@H]2[C@H](O)C[C@H]3[C@@H]4CC=C5C[C@@H](O)CC[C@]5(C)[C@H]4CC[C@]23C)NC1", "note": "[CAPSIMINE]", "values": [{"measurement": "Activity", "setting": "[1]", "value": "Active"}, {"measurement": "EC50", "setting": "[2]", "value": 1.97, "unit": "µg/mL"}, {"measurement": "EC50", "setting": "[3]", "value": 1.35, "unit": "µg/mL"}]}
{"smiles": "C[C@H]1CC[C@H]([C@@H](C)[C@H]2[C@H](O)C[C@H]3[C@@H]4CC=C5C[C@@H](O[C@@H]6O[C@H](CO)[C@@H](O)[C@H](O)[C@H]6O)CC[C@]5(C)[C@H]4CC[C@]23C)NC1", "note": "[CAPSICASTRINE]", "values": [{"measurement": "EC50", "setting": "[2]", "value": 1.78, "unit": "µg/mL"}]}
{"smiles": "C[C@H]1CC=C([C@@H](C)[C@H]2[C@H](O)C[C@H]3[C@@H]4CC=C5C[C@@H](O)CC[C@]5(C)[C@H]4CC[C@]23C)NC1", "note": "[ETIOLINE]", "values": [{"measurement": "EC50", "setting": "[2]", "value": 2.67, "unit": "µg/mL"}, {"measurement": "EC50", "setting": "[3]", "value": 11.2, "unit": "µg/mL"}]}
{"smiles": "C[C@@H]1CC[C@]2(O[C@H]3C[C@H]4[C@@H]5CC=C6C[C@@H](O)CC[C@]6(C)[C@H]5CC[C@]4(C)[C@H]3[C@@H]2C)N(C)C1", "values": [{"measurement": "EC50", "setting": "[2]", "value": 8.02, "unit": "µg/mL"}, {"measurement": "EC50", "setting": "[3]", "value": 6, "unit": "µg/mL"}]}
{"smiles": "O=C1C[C@@H](c2ccc(O)cc2)Oc2cc(O)cc(O)c21", "note": "[NARINGENIN]", "values": [{"measurement": "EC50", "setting": "[2]", "value": 2.47, "unit": "µg/mL"}, {"measurement": "EC50", "setting": "[3]", "value": 2.71, "unit": "µg/mL"}]}
{"smiles": "C[C@@H]1CC[C@H]([C@@H](C)C2[C@H](O)C[C@H]3[C@@H]4CC=C5C[C@@H](O[C@@H]6O[C@H](CO)[C@@H](O)[C@H](O)[C@H]6O)CC[C@]5(C)[C@H]4CC[C@]23C)NC1", "note": "(some centres undefined)", "values": [{"measurement": "Activity", "setting": "[1]", "value": "Active"}]}
{"smiles": "C[C@@H]1CC[C@@]2(NC1)O[C@H]1C[C@H]3[C@@H]4CC=C5C[C@@H](O[C@@H]6O[C@H](CO)[C@H](O)[C@H](O[C@@H]7O[C@H](CO)[C@@H](O)[C@H](O)[C@H]7O)[C@H]6O[C@@H]6O[C@@H](C)[C@H](O)[C@@H](O)[C@H]6O)CC[C@]5(C)[C@H]4CC[C@]3(C)[C@H]1[C@@H]2C", "note": "[SOLASONINE]", "values": [{"measurement": "EC50", "setting": "[2]", "value": 7.88, "unit": "µg/mL"}, {"measurement": "EC50", "setting": "[3]", "value": 11.4, "unit": "µg/mL"}]}
